{"source": "patent US20230372382A1", "about": "“USE OF ADENOSINE DIPHOSPHATE RIBOSE FOR ADJUVANT THERAPY WITH RADIATION AND/OR ANTI-CANCER TREATMENT” (PearlsInMires Co., Ltd., priority 2021, published 2023)", "key": {"[1]": {"system": "H1975 cells", "assay": "Cell death by combination treatment of ADP-ribose and radiation (MTT)", "type": "cell-based", "conditions": "H1975, 2 μM ADP-ribose in combination with 2 Gy radiation, 24 hours, P<0.001; 2 Gy alone about 75%", "procedure": "3×10^3 H1975 cells were cultured in a 96-well plate for 24 hours under conditions of 37° C. and 5% Ca2, treated with 2 μM of ADP-ribose and 2 or 5 Gy dose of radiation individually or in combination, and cultured for 24 hours under conditions of 37° C. and 5% CO2 again. Then, 10 μl of 3-(4,5-dimethylthiazol-2-yl)-2,5-diphenyltetrazolium bromide reagent was added to each well and reacted for 1 hour. After the reaction was completed, the reagent was removed, 200 μl of dimethyl sulfoxide was added to each well, and the absorbance was measured to confirm cell viability."}, "[2]": {"system": "MDA-MB-231 cells", "assay": "Cell death by combination treatment of ADP-ribose and radiation (MTT)", "type": "cell-based", "conditions": "MDA-MB-231, 16 μM ADP-ribose in combination with 2 Gy radiation, 24 hours, P<0.001; 2 Gy alone about 90.6%", "procedure": "3×10^3 Brain cancer (U-87MG), lung cancer (H1975), pancreatic cancer (Aspc-1), liver cancer (Hep G2), breast cancer (MDA-MB-231), colon cancer (HCT116), and kidney cancer (Caki-1) cells were cultured in a 96-well plate for 24 hours under conditions of 37° C. and 5% CO2, treated with ADP-ribose or 2 or 5 Gy radiation alone or in combination with ADP-ribose and 2 Gy radiation, and cultured for 24 hours under conditions of 37° C. and 5% CO2 again. Then, 10 μl of 3-(4,5-dimethylthiazol-2-yl)-2,5-diphenyltetrazolium bromide reagent was added to each well and reacted for 1 hour. After the reaction was completed, the reagent was removed, 200 μl of dimethyl sulfoxide was added to each well, and the absorbance was measured to compare the degree of cell death.\n3×10^3 MDA-MB-231 cells were cultured in a 96-well plate for 24 hours under conditions of 37° C. and 5% CO2, treated with 16 μM of ADP-ribose and 2 or 5 Gy dose of radiation individually or in combination, and cultured for 24 hours under conditions of 37° C. and 5% CO2 again. Then, 10 μl of 3-(4,5-dimethylthiazol-2-yl)-2,5-diphenyltetrazolium bromide reagent was added to each well and reacted for 1 hour. After the reaction was completed, the reagent was removed, 200 μl of dimethyl sulfoxide was added to each well, and the absorbance was measured to confirm cell viability."}, "[3]": {"system": "Liver cancer (Hep G2) cells", "assay": "Cell death by combination treatment with anti-cancer drug (MTT)", "conditions": "Homo sapiens, HepG2, 24 h, read-out: viability of cancer cells", "procedure": "3×10^3 Liver cancer (Hep G2) cells were cultured in a 96-well plate for 24 hours under conditions of 37° C. and 5% CO2, treated with ADP-ribose at a concentration of 1.6 μM and sorafenib at 1 μM, individually or in combination, and cultured for 24 hours under conditions of 37° C. and 5% CO2 again. Then, 10 μl of 3-(4,5-dimethylthiazol-2-yl)-2,5-diphenyltetrazolium bromide reagent was added to each well and reacted for 1 hour. After the reaction was completed, the reagent was removed, 200 μl of dimethyl sulfoxide was added to each well, and the absorbance was measured to confirm cell viability."}}}
{"smiles": "Nc1ncnc2c1ncn2[C@@H]1O[C@H](COP(=O)(O)OP(=O)(O)OC[C@H]2O[C@@H](O)C(O)C2O)C(O)C1O", "note": "(stereo partly drawn) [ADP-ribose, adenosine diphosphate ribose]", "values": [{"measurement": "survival rate of cancer cells", "setting": "[1]", "value": "about 8%"}, {"measurement": "survival rate of cancer cells", "setting": "[2]", "value": "about 11.3%"}, {"measurement": "viability at 1.6 µM", "setting": "[3]", "value": "~0.9", "unit": "%"}]}
